{
  "source": "patent US20250214951A1",
  "about": "“3-PHENYLISOXAZOLE DERIVATIVE, AND PHARMACEUTICAL COMPOSITION FOR PREVENTING OR TREATING EYE DISEASE, CONTAINING SAME AS ACTIVE INGREDIENT” (VASTHERA CO., LTD., priority 2022, published 2025)",
  "format_in_all_cases": "cell-based, human",
  "key": {"LC3-II": {"tested_on": "LC3-II", "assay": "Autophagy activation in A2E-accumulated ARPE-19 (LC3-II Western)", "conditions": "25, 50, 100 μM, 12 h; FIG. 8", "experimental": "A2E is known to inhibit intracellular autophagy. Therefore, it was measured whether example 17 compound of the present invention also increases autophagy in ARPE-19 cell lines accumulating A2E.\nSpecifically, ARPE-19 cell lines were dispensed into 6-well plates at a concentration of 1×10^5 cells/well and cultured for 24 hours. The cells were treated with A2E at a concentration of […] for 24 hours. Thereafter, the cells were treated with example 17 compound of the present invention at concentrations of 25, 50, and 100 μM for 12 hours each. Thereafter, cell lysate preparation and measurement of LC3-II by Western immunoblotting were performed in the same manner as in Experimental Example 7, and the results are shown in FIG. 8."}, "[1]": {"tested_on": "IL-1β, IL-6 and CXCL8 mRNA", "assay": "Inhibition of blue light-induced inflammatory gene expression (real-time PCR)", "conditions": "A2E and blue light; P<0.05; FIG. 5", "experimental": "ARPE-19 cell lines were seeded in 6-well plates at a concentration of 2×10^4 cells/well and cultured for 24 hours. The process of accumulating A2E in ARPE-19 cell lines, irradiating with blue light, and treating with example 17 compound of the present invention was performed in the same manner as in Experimental Example 5. After 24 hours of irradiating with blue light, total RNA was isolated from ARPE-19 cells using Trizol reagent (Invitrogen), and total RNA was quantified using Nanodrop (Nanodrop, Thermo Scientific). Thereafter, cDNA was synthesized using […] of total RNA, and the cDNA was amplified using the primers described in Table 5 below as a template and a real-time genetic cycler LC480 (Roche) (PCR conditions: denaturation −95° C., 10 seconds; primer binding −60° C., 10 seconds; and extension −72° C., 10 seconds).\nAt this time, the PCR results for 18S were used as a control to correct the relative amount of genes measured in the ARPE-19 cell line, and the experimental results are shown in FIG. 5."}, "p62 protein": {"tested_on": "p62 protein", "assay": "Restoration of autophagy inhibited by A2E and blue light (p62 Western)", "conditions": "ARPE-19, A2E accumulation and blue light; FIG. 10", "excerpt": "Therefore, it was confirmed whether the compound of the present invention can restore autophagy inhibited by A2E and blue light.\nDuring the autophagosome formation process, p62 specifically binds to a substance to be degraded and simultaneously binds to LC3 protein to form an autophagosome. When autophagy is inhibited, aggregates composed of p62 and ubiquitinated proteins are formed and p62 accumulates in the cell. Therefore, by measuring the change in the level of intracellular p62, the improvement effect of the compound of the present invention on autophagy inhibited by A2E and blue light can be evaluated, and the experiment was conducted as follows.\nSpecifically, ARPE-19 cells were seeded into 6-well plates at a concentration of 2×10^4 cells/well and cultured for 24 hours. To induce A2E accumulation in the ARPE-19 cell line, the cells were treated with A2E three times at a concentration of 25 μM at 48-hour intervals. 24 hours after the final A2E treatment, the cells were treated with example 17 compound twice at 24-hour intervals each. […] The amount of intracellular p62 was measured by Western immunoblotting using an anti-p62 antibody (Santa Cruz, TX, USA). The amount of intracellular β-actin was measured in the same manner using anti-β-actin antibody (Santa Cruz) and used as a control."}, "ARPE-19 cells": {"tested_on": "ARPE-19 cells", "assay": "Inhibition of retinal pigment epithelial cell death induced by A2E and blue light", "experimental": "A2E accumulated in human retinal pigment epithelial cells is known to induce cytotoxicity by blue light irradiation. Using a human retinal pigment epithelial cell line, the effect of the compound of the present invention on inhibiting cell death by blue light irradiation was measured.\nThe ARPE-19 cell line was dispensed into a 6-well plate at a concentration of 2×10^4 cells/well and cultured for 24 hours. In order to induce A2E accumulation in the ARPE-19 cell line, cells were treated with A2E three times at a concentration of 25 μM at 48-hour intervals. Twenty-four hours after the last A2E treatment, cells were treated with example 17 compound of the present invention twice at 24-hour intervals at concentrations of 10, 25, and 50 μM, respectively. After an additional 24 hours of culture, blue light (BL, 430 nm, 7500 lux) was irradiated for 30 minutes and cultured for 24 hours. Cell death was observed under a microscope, and the number of living cells was measured using Image J (National Institutes of Health, USA) to calculate the quantitative cell viability."}, "NF-κB (p65)": {"tested_on": "NF-κB (p65)", "assay": "Inhibition of blue light-induced NF-κB activation (p65 Western immunoblotting)", "conditions": "A2E and blue light; 10 and 25 μM; FIG. 4", "excerpt": "When cells are stimulated by external pathogenic molecules (PAMPs), NF-κB dimers (p50-p65 dimers) are separated from IκB and activated. The separated NF-κB dimers pass through the nuclear membrane and enter the nucleus, where they bind to DNA and activate gene transcription, indicating the activation of NF-κB. Therefore, the inhibitory effect of the compound of the present invention on NF-κB activation can be evaluated by measuring changes in the cytoplasmic or nuclear levels of p65. The experiment was conducted as follows.\nARPE-19 cells were seeded in 6-well plates at a concentration of 2×10^4 cells/well and cultured for 24 hours. In order to induce A2E accumulation in the ARPE-19 cell line, cells were treated with A2E three times at a concentration of 25 μM at 48-hour intervals. 24 hours after the final A2E treatment, cells were treated with compound 17 of the present invention twice at concentrations of 10 and 25 μM at 24-hour intervals, respectively. […] The level of p65 was measured by Western immunoblotting using anti-p65 antibody (Cell Signaling Technology, MA, USA). The cytoplasmic and nuclear fractions were measured by Western immunoblotting in the same manner as above using antibodies against α-tubulin (Cell Signaling Technology) and histone H3 (Abcam, Cambridge, UK) as internal controls, respectively."}},
  "data": [
    {"smiles": "C=CCOCc1cc(-c2cc(CC=C)ccc2OC)no1", "note": "[Example 17, 3-(5-allyl-2-methoxyphenyl)-5-((allyloxy)methyl)isoxazole]", "values": [
      {"measurement": "LC3-II level in A2E-accumulated ARPE-19", "setting": "LC3-II", "value": "an increase in LC3-II"},
      {"measurement": "expression of mRNA of inflammation-related genes (IL-1β, IL-6, and CXCL8)", "setting": "[1]", "value": "statistically significant reduction"},
      {"measurement": "p62 protein concentration", "setting": "p62 protein", "value": "decreased in a concentration-dependent manner"},
      {"measurement": "cell death induced by A2E and blue light (microscope)", "setting": "ARPE-19 cells; A2E 25 μM x3, compound 10, 25, 50 μM twice, blue light 430 nm, 7500 lux, 30 min, FIG. 3 upper", "value": "cell death was significantly inhibited"},
      {"measurement": "cell viability quantified using Image J (cell death by A2E and blue light)", "setting": "ARPE-19 cells; same model, FIG. 3 lower", "value": "statistically significantly inhibited"},
      {"measurement": "activation of NF-κB (movement of p65 into the nucleus)", "setting": "NF-κB (p65)", "value": "activation of NF-κB was inhibited"}
    ]}
  ]
}
